Test results as given in patent US8772266B2, “Fungicide pyrazole carboxamides derivates” (Bayer Cropscience AG, priority 2009, dated 2014).

Columns and labels:
[1] = logP by HPLC on reversed-phase column (EEC Directive 79/831 Annex V.A8); settings: 40° C., 0.1% aqueous formic acid and acetonitrile, linear gradient 10% to 90% acetonitrile
[2] = test system: Sphaerotheca fuliginea; test: In vivo preventive test on Sphaerotheca fuliginea (cucumber), Example G; settings: 10 ppm of active ingredient, evaluated 7 days after inoculation
Excerpt: After the spray coating has dried on, the plants are inoculated with an aqueous spore suspension of Sphaerotheca fuliginea.

[3] = test system: Fusarium nivale; test: In vivo curative test on Fusarium nivale (wheat); settings: 500 ppm of active ingredient, evaluated 8 days after inoculation
[4] = HPLC, reversed-phase column (C 18)
[5] = HPLC on reversed-phase column (C 18)

| Structure (SMILES) | logP [1, 4] | disease control [2] | other results |
| --- | --- | --- | --- |
| Cc1ccc(C(F)(F)F)c(CN(C(=O)c2c(C(F)F)nn(C)c2F)C2CC2)c1 [Example 12] | 3.78 | 100% | – |
| CCCCCc1cccc(Cl)c1CN(C(=O)c1c(C(F)F)nn(C)c1F)C1CC1 [Example 27] | 5 | 100% | – |
| Cn1nc(C(F)F)c(C(=O)N(Cc2c(C(F)(F)F)ccc(F)c2F)C2CC2)c1F [Example 68] | 3.31 | 100% | – |
| Cc1cc(C)cc(C(C)N(C(=O)c2c(C(F)F)nn(C)c2F)C2CC2)c1 (racemic) [Example 46] | 3.8 | – | disease control [3]: 100% |
| Cn1nc(C(F)F)c(C(=O)N(Cc2c(Cl)cccc2C2CC2)C2CC2)c1F [Example 113] | – | 100% | – |
| Cn1nc(C(F)F)c(C(=O)N(Cc2cc(F)ccc2[Si](C)(C)C)C2CC2)c1F [Example 118] | – | 100% | – |
| Cn1nc(C(F)F)c(C(=O)N(Cc2cc(Cl)ccc2Br)C2CC2)c1F [Example 4] | 3.67 | – | disease control [3]: 100% |
| Cn1nc(C(F)F)c(C(=O)N(Cc2cccc(-c3ccccc3)c2)C2CC2)c1F [Example 64] | 3.78 | – | disease control [3]: 100% |
| CC(C)c1ccccc1CN(C(=O)c1c(C(F)F)nn(C)c1F)C1CC1C (stereo not shown) [Example 157] | – | 100% | – |
| Cn1nc(C(F)F)c(C(=O)N(Cc2cc(F)ccc2C2CC2)C2CC2)c1F [Example 123] | – | 100% | – |
| CC1CCc2cccc(C(C)N(C(=O)c3c(C(F)F)nn(C)c3F)C3CC3)c2C1 (mixture of isomers) [Example 50] | 4.59 | 100% | – |
| CC(c1cccc2c1CCCC2)N(C(=O)c1c(C(F)F)nn(C)c1F)C1CC1 (racemic) [Example 51] | 4.14 | – | disease control [3]: 100% |
| CCCCc1ccc(F)cc1CN(C(=O)c1c(C(F)F)nn(C)c1F)C1CC1 [Example 121] | – | 100% | – |
| CCc1ccccc1CN(C(=O)c1c(C(F)F)nn(C)c1F)C1CC1 [Example 48] | 3.33 | – | disease control [3]: 100% |
| CCCCCc1ccccc1C(C)N(C(=O)c1c(C(F)F)nn(C)c1F)C1CC1 (racemic) [Example 26] | 4.92 | 100% | – |
| CCCCc1cccc(Cl)c1CN(C(=O)c1c(C(F)F)nn(C)c1F)C1CC1 [Example 115] | – | 100% | – |
| Cn1nc(C(F)F)c(C(=S)N(Cc2c(Cl)cccc2C(F)(F)F)C2CC2)c1F [Example 132] | – | 100% | logP [1, 5]: 4.23 |
| Cn1nc(C(F)F)c(C(=O)N(Cc2ccc(Cl)cc2I)C2CC2)c1F [Example 20] | 3.99 | – | disease control [3]: 100% |
| Cn1nc(C(F)F)c(C(=O)N(Cc2ccccc2I)C2CC2)c1F [Example 9] | 3.37 | – | disease control [3]: 100% |
| Cn1nc(C(F)F)c(C(=O)N(Cc2ccc(Cl)cc2Cl)C2CC2)c1F [Example 63] | 3.69 | – | disease control [3]: 100% |
| Cn1nc(C(F)F)c(C(=O)N(Cc2cc(F)ccc2C2CCCC2)C2CC2)c1F [Example 138] | – | 100% | – |
| Cn1nc(C(F)F)c(C(=O)N(Cc2c(F)cccc2C2CCCC2)C2CC2)c1F [Example 137] | – | 100% | – |
| CC[Si](C)(C)c1ccccc1CN(C(=O)c1c(C(F)F)nn(C)c1F)C1CC1 [Example 13] | 4.75 | 100% | – |
| Cn1nc(C(F)F)c(C(=O)N(Cc2ccccc2C2CC2)C2CC2)c1F [Example 47] | 3.44 | 100% | – |

| Structure (SMILES) | logP [1, 4] | disease control [2] | other results |
| --- | --- | --- | --- |
| CC(C)c1ccc(F)cc1CN(C(=O)c1c(C(F)F)nn(C)c1F)C1CC1 [Example 135] | – | 100% | – |
| CC(C)Cc1cccc(F)c1CN(C(=O)c1c(C(F)F)nn(C)c1F)C1CC1 [Example 127] | – | 100% | – |
| Cn1nc(C(F)F)c(C(=O)N(Cc2ccccc2C2CCCC2)C2CC2)c1F [Example 82] | 4.2 | 100% | – |
| CCCCc1ccc(Cl)cc1CN(C(=O)c1c(C(F)F)nn(C)c1F)C1CC1 [Example 119] | – | 100% | – |
| CC(c1ncc(Cl)cc1Cl)N(C(=O)c1c(C(F)F)nn(C)c1F)C1CC1 (stereo not shown) [Example 62] | 3.48 | 100% | – |
| CC(c1cccc2c1OC(F)(F)O2)N(C(=O)c1c(C(F)F)nn(C)c1F)C1CC1 (racemic) [Example 72] | 3.58 | 100% | – |
| CC(C)Cc1ccc(Cl)cc1CN(C(=O)c1c(C(F)F)nn(C)c1F)C1CC1 [Example 120] | – | 100% | – |
| CCc1cccc(Cl)c1CN(C(=O)c1c(C(F)F)nn(C)c1F)C1CC1 [Example 124] | – | 100% | – |
| CC(c1cc(Cl)ccc1C(F)(F)F)N(C(=O)c1c(C(F)F)nn(C)c1F)C1CC1 (stereo not shown) [Example 101] | – | 100% | logP [1, 5]: 3.92 |
| CC(C)Cc1cccc(Cl)c1CN(C(=O)c1c(C(F)F)nn(C)c1F)C1CC1 [Example 32] | 4.44 | 100% | – |
| Cn1nc(C(F)F)c(C(=O)N(C2CC2)C2CCC(C)(C)c3ccccc32)c1F (stereo not shown) [Example 99] | 4.16 | 100% | – |
| Cn1nc(C(F)F)c(C(=O)N(Cc2ncc(C(F)(F)F)cc2Cl)C2CC2)c1Cl [Example 57] | 3.55 | – | – |
| CC(c1ccccc1OC(F)(F)F)N(C(=O)c1c(C(F)F)nn(C)c1F)C1CC1 (stereo not shown) [Example 91] | 3.6 | – | – |
| CC(c1ccccc1)N(C(=O)c1c(C(F)F)nn(C)c1F)C1CC1 (stereo not shown) [Example 95] | 3.06 | – | – |
| CCCCc1ccc(F)c(F)c1CN(C(=O)c1c(C(F)F)nn(C)c1F)C1CC1 [Example 126] | – | 100% | – |
| CC(c1cccc(I)c1)N(C(=O)c1c(C(F)F)nn(C)c1F)C1CC1 (stereo not shown) [Example 103] | – | – | logP [1, 5]: 3.76 |
| CC(C)Cc1ccc(F)c(F)c1CN(C(=O)c1c(C(F)F)nn(C)c1F)C1CC1 [Example 112] | – | 100% | – |
| Cn1nc(C(F)F)c(C(=O)N(Cc2c(Cl)cccc2C2CCCC2)C2CC2)c1F [Example 141] | – | 100% | – |
| Cn1nc(C(F)F)c(C(=O)N(C2CC2)C2CCOc3ccccc32)c1F (stereo not shown) [Example 86] | 2.84 | – | – |
| Cn1nc(C(F)F)c(C(=O)N(Cc2c(C3CCCC3)ccc(F)c2F)C2CC2)c1F [Example 139] | – | 100% | – |
| CC(C)c1ccccc1CN(C(=S)c1c(C(F)F)nn(C)c1F)C1CC1 [Example 131] | – | 100% | logP [1, 5]: 4.36 |
| CC(c1ccc(Oc2ccccc2)cc1)N(C(=O)c1c(C(F)F)nn(C)c1Cl)C1CC1 (stereo not shown) [Example 60] | 4.31 | – | – |
| CC(C)c1ccc(F)cc1CN(C(=O)c1c(C(F)F)nn(C)c1Cl)C1CC1 [Example 146] | – | – | logP [1, 5]: 3.92 |
| CCC(C)c1ccccc1CN(C(=O)c1c(C(F)F)nn(C)c1F)C1CC1 (stereo not shown) [Example 156] | – | – | logP [1, 5]: 4.06 |

| Structure (SMILES) | logP [1, 4] | disease control [2] | other results |
| --- | --- | --- | --- |
| Cn1nc(C(F)F)c(C(=O)N(Cc2c(Br)cccc2Br)C2CC2)c1F [Example 92] | 3.51 | – | – |
| CC(c1cccc2c1CCC(C)(C)C2)N(C(=O)c1c(C(F)F)nn(C)c1F)C1CC1 (single isomer, unassigned) [Example 44a] | – | 100% | – |
| CC(c1ccc(C(F)(F)c2ccccc2)cc1)N(C(=O)c1c(C(F)F)nn(C)c1F)C1CC1 (stereo not shown) [Example 77] | 4.23 | – | – |
| CCCCc1cccc(F)c1CN(C(=O)c1c(C(F)F)nn(C)c1F)C1CC1 [Example 128] | – | 100% | – |
| CCCCC(c1ccc(C(F)(F)F)cc1)N(C(=O)c1c(C(F)F)nn(C)c1F)C1CC1 (stereo not shown) [Example 93] | 4.8 | – | – |
| Cn1nc(C(F)F)c(C(=O)N(Cc2c(F)cccc2C2CC2)C2CC2)c1F [Example 130] | – | 100% | – |
| CC(c1ccc(Cl)cc1Cl)N(C(=O)c1c(C(F)F)nn(C)c1F)C1CC1 (stereo not shown) [Example 70] | 3.83 | 100% | – |
| CCCCC(c1ccccc1)N(C(=O)c1c(C(F)F)nn(C)c1F)C1CC1 (stereo not shown) [Example 94] | 4.26 | – | – |
| Cn1nc(C(F)F)c(C(=O)N(Cc2cc(Cl)ccc2C2CCCC2)C2CC2)c1Cl [Example 152] | – | – | logP [1, 5]: 4.92 |
| CC(C)CC(C)c1ccccc1CN(C(=O)c1c(C(F)F)nn(C)c1F)C1CC1 (stereo not shown) [Example 154] | – | – | logP [1, 5]: 4.82 |
| CC(C)c1ccc(F)c(F)c1CN(C(=O)c1c(C(F)F)nn(C)c1F)C1CC1 [Example 136] | – | 100% | – |
| CC(C)Cc1cc(Cl)ccc1CN(C(=O)c1c(C(F)F)nn(C)c1F)C1CC1 [Example 31] | 4.59 | – | – |
| Cn1nc(C(F)F)c(C(=O)N(Cc2c(Cl)cccc2Br)C2CC2)c1F [Example 83] | 3.42 | 100% | – |
| CC(c1ccc(Oc2ccccc2)cc1)N(C(=O)c1c(C(F)F)nn(C)c1F)C1CC1 (stereo not shown) [Example 65] | 4.14 | – | – |
| Cn1nc(C(F)F)c(C(=O)N(Cc2c(F)cccc2[Si](C)(C)C)C2CC2)c1F [Example 11] | 4.31 | 100% | – |
| CC(c1cccc(C(F)(F)c2ccccc2)c1)N(C(=O)c1c(C(F)F)nn(C)c1F)C1CC1 (stereo not shown) [Example 78] | 4.15 | – | – |
| Cn1nc(C(F)F)c(C(=O)N(Cc2c(C(F)(F)F)ccc(F)c2C(F)(F)F)C2CC2)c1F [Example 117] | – | 100% | – |
| Cc1cc(Br)c(CN(C(=O)c2c(C(F)F)nn(C)c2F)C2CC2)cc1F [Example 75] | 3.73 | – | – |
| Cn1nc(C(F)F)c(C(=O)N(Cc2c(Cl)cccc2I)C2CC2)c1F [Example 19] | 3.58 | – | – |
| Cn1nc(C(F)F)c(C(=O)N(Cc2c(Cl)cccc2[Si](C)(C)C)C2CC2)c1F [Example 116] | – | 100% | – |
| Cn1nc(C(F)F)c(C(=O)N(Cc2c([Si](C)(C)C)ccc(F)c2F)C2CC2)c1F [Example 49] | 4.36 | 100% | – |
| Cc1cccc2c1CCC2N(C(=O)c1c(C(F)F)nn(C)c1F)C1CC1 (racemic) [Example 102] | – | – | logP [1, 5]: 3.55 |
